Test results reported in patent US20230015532A1, “PHARMACEUTICAL COMPOSITION, FOR PREVENTING OR TREATING FIBROSIS, COMPRISING PHEOPHORBIDE COMPOUND AS ACTIVE INGREDIENT” (PAEAN BIOTECHNOLOGY INC., priority 2019, published 2023).

Experiments:
Format in all cases: cell-based, human
[1] = test system: α-SMA, collagen 1A and fibronectin in CCD8-Lu cells; assay: Comparison of anti-fibrotic activity by Western blotting (Experimental Example 4.2); conditions: 6 hours after 5 ng/ml TGF-β, 18 hours
Method: A cell-based analysis experiment was performed to analyze the anti-fibrotic activity of pheophorbide a in comparison with nintedanib and pirfenidone, which were previously approved as a therapeutic agent for pulmonary fibrosis, using Western blotting assay.
(§1) CCD8-Lu cells, which are human lung-derived fibroblasts, were cultured in the DMEM medium containing 10% FBS. About 2×10^5 cells were then inoculated into a 6 well plate, cultured for 24 hours, and subjected to the deficient condition in the DMEM medium from which FBS was removed for about 24 hours.
24 hours later, following the treatment with TGF-β at a concentration of 5 ng/ml, fibrosis of cells was induced for 6 hours. Then, the cells were treated with pheophorbide a obtained in Preparation Example 2 or the therapeutic agent for pulmonary fibrosis and further cultured for 18 hours. Then, the negative control group was treated with nothing, the positive control group was treated with TGF-β alone at a concentration of 5 ng/ml, and the experimental groups were treated with TGF-β at a concentration of 5 ng/ml and 6 hours later, with pheophorbide a at a concentration of […] or 5 μM, nintedanib at a concentration of 1 μM, and pirfenidone at a concentration of 1 mM, respectively.
After 18 hours, the culture medium was removed and the cells were washed twice by adding a PBS buffer solution, and 100 μl of RIPA buffer solution (150 mM NaCl, 1% NP-40, 0.5% Deoxycholic acid, 0.1% SDS, 50 mM Tris pH 7.5) containing a protease inhibitor was added thereto directly. 10 minutes later, the cells were recovered using a scraper and transferred to a microtube and centrifuged at about 12,000×g for 10 minutes.
The separated supernatant was obtained and transferred to a new microtube and then the protein was quantified using a bicinchoninic acid assay (BCA assay) protein quantitative kit. Each sample with the same amount of protein was subjected to electrophoresis, and then Western blotting was performed. […]

[2] = test system: phosphorylated Smad3 and phosphorylated ERK in CCD8-Lu cells; assay: Western blotting of phosphorylated proteins of TGF-β signaling (Experimental Example 5); conditions: 1 μM, 6 hours after 5 ng/ml TGF-β
Method: A cell-based assay experiment was performed using Western blotting assay to determine the effect of pheophorbide a on phosphorylation in the TGF-β signaling pathway. CCD8-Lu cells, which are human lung-derived fibroblasts, were cultured in the DMEM medium containing 10% FBS. About 2×10^5 cells were then inoculated into a 6 well plate, cultured for 24 hours, and subjected to the deficient condition in the DMEM medium from which FBS was removed for about 24 hours. 24 hours later, following the treatment with TGF-β at a concentration of 5 ng/ml, fibrosis of cells was induced for 6 hours. Then, the cells were treated with pheophorbide a obtained in Preparation Example 2 or the therapeutic agent for pulmonary fibrosis and further cultured for 18 hours. Then, the negative control group was treated with nothing, the positive control group was treated with TGF-β alone at a concentration of 5 ng/ml, and the experimental groups were treated with TGF-β at a concentration of 5 ng/ml and 6 hours later, with pheophorbide a at a concentration of 5 μM and nintedanib at a concentration of 1 μM, respectively. […] The separated supernatant was obtained and transferred to a new microtube and then the protein was quantified using a bicinchoninic acid assay (BCA assay) protein quantitative kit. […]

[3] = test system: α-SMA, CTGF and NOX4 genes in CCD8-Lu cells; assay: Comparison of anti-fibrotic activity by quantitative real-time PCR (Experimental Example 4.1); conditions: 6 hours after 5 ng/ml TGF-β, 18 hours, qRT-PCR
Method: A cell-based analysis experiment was performed to analyze the anti-fibrotic activity of pheophorbide a obtained in Preparation Example 2 in comparison with nintedanib and pirfenidone, which were previously approved as a therapeutic agent for pulmonary fibrosis, using quantitative real-time polymerase chain reaction.
as §1
24 hours later, following the treatment with TGF-β at a concentration of 5 ng/ml, fibrosis of cells was induced for 6 hours. After 6 hours, the cells were treated with pheophorbide a obtained in Preparation Example 2 or the therapeutic agent for pulmonary fibrosis and further cultured for 18 hours. […]
The supernatant was separated, added with the same volume of isopropyl alcohol and centrifuged at 12,000×g for 10 minutes. […] After drying, about 50 μl of RNAase-free purified distilled water was added thereto, and the quantity and purity of the obtained RNA was measured using a spectrophotometer. […]
After the cDNA synthesis reaction was completed, the reverse transcriptase was inactivated by heating at 72° C. for 5 minutes, and then RNase H was added to remove the […] RNA and obtain the final cDNA. Whether the expression of the alpha-smooth muscle actin gene, which is a characteristic gene of myofibroblasts, the CCN2 (or CTGF) gene, which is a characteristic gene for fibrosis, fibronectin, which is a characteristics gene for fibrosis, and the NOX4 (NADPH oxidase 4) gene known as a major regulator of the amount of reactive oxygen species was changed was observed through quantitative real-time polymerase chain reaction. The GAPDH gene was quantified together to correct differences in expression.

[4] = test system: collagen 1A in CCD8-Lu cells; assay: Comparison of anti-fibrotic activity by immunocytochemistry staining (Experimental Example 4.3); conditions: 1 μM; 6 hours after 5 ng/ml TGF-β; fluorescence intensity
Method: A cell-based analysis experiment was performed to analyze the anti-fibrotic activity of pheophorbide a in comparison with nintedanib and pirfenidone, which were previously approved as a therapeutic agent for pulmonary fibrosis, using immunocytochemistry staining method. CCD8-Lu cells, which are human lung-derived fibroblasts, were cultured in the DMEM medium containing 10% FBS. About 2×10^4 cells were then inoculated into a 24 well plate and cultured for 24 hours, and subjected to the deficient condition in the DMEM medium from which FBS was removed for about 24 hours. After 24 hours, following the treatment with TGF-β at a concentration of 5 ng/ml, fibrosis of cells was induced for 6 hours. After 6 hours, the cells were treated with 2.5 μM or 5 μM of pheophorbide a, 1 μM of nintedanib, or 1 mM of pirfenidone. Immunohistochemistry analysis for each sample was performed as follows. First, the sample was washed twice with a PBS buffer, and then 4% formaldehyde was added to fix for 1 hour, and anti-collagen 1A was used as a primary antibody and Alexa Fluor 488 was used as a secondary antibody. The nuclei were stained using DAPI (4,6-diamidino-2-phenylindole) and the difference in the intensity of fluorescence was analyzed using a fluorescence microscope.

COC(=O)c1ccc2c(c1)NC(=O)/C2=C(\Nc1ccc(N(C)C(=O)CN2CCN(C)CC2)cc1)c1ccccc1 [nintedanib, reference compound]
expression of α-SMA, collagen 1A, and fibronectin induced by TGF-β ([1]; 1 μM): weakly or hardly inhibited | expression of phosphorylated Smad3 and phosphorylated ERK induced by TGF-β [2]: hardly inhibited | expression of α-SMA, CTGF and NOX4 genes induced by TGF-β ([3]; 1 μM): weakly or hardly inhibited | expression of the collagen 1A protein induced by TGF-β [4]: weakly inhibited

Cc1ccc(=O)n(-c2ccccc2)c1 [pirfenidone]
expression of α-SMA, collagen 1A, and fibronectin induced by TGF-β ([1]; 1 mM): weakly or hardly inhibited | expression of α-SMA, CTGF and NOX4 genes induced by TGF-β ([3]; 1 mM): weakly or hardly inhibited
